Test results published in ChEMBL document CHEMBL1131803, “Novel benzopyrano[3,4-c]pyrrole derivatives as potent and selective dopamine D3 receptor antagonist” (Bioorg Med Chem Lett, 1999).

Assays:
D(3) dopamine receptor = D(3) dopamine receptor (Homo sapiens, UniProt P35462); experiment: Ability to displace [125I]iodosulpiride from human dopamine D3 (hD3) receptor transfected into CHO cells.; format: cell-based
D(2) dopamine receptor = D(2) dopamine receptor (Homo sapiens, UniProt P14416); experiment: Ability to displace [125I]iodosulpiride from human dopamine D2 (hD2) receptor transfected into CHO cells.; format: cell-based
Chain of D(2) dopamine receptor (P14416 whole entry): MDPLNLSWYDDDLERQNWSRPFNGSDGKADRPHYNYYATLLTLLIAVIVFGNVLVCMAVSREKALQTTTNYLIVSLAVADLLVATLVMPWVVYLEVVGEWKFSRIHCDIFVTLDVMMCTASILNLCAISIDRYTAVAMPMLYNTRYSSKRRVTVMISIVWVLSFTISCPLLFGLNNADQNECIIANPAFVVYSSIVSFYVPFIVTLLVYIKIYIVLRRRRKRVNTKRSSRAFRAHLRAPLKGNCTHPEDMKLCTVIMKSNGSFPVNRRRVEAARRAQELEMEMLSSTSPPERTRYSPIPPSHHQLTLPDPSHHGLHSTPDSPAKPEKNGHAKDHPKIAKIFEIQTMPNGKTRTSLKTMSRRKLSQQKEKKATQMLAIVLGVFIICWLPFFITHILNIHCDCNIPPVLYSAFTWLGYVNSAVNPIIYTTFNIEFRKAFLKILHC

Chain of D(3) dopamine receptor (P35462 whole entry): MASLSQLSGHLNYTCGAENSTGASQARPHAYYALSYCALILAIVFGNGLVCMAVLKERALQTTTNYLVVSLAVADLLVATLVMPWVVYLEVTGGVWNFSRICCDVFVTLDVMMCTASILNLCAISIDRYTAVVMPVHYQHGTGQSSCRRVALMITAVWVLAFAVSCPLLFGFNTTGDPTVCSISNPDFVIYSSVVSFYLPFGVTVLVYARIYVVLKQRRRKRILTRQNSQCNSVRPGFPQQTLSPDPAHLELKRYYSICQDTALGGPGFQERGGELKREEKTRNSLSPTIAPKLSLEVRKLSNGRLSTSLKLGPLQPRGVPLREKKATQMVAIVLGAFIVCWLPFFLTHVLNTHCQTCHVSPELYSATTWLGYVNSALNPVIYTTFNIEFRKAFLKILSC

Compound | Ki (D(3) dopamine receptor) | Ki (D(2) dopamine receptor)
N#Cc1ccc2c(c1)C1CN(CCCCNC(=O)c3ccc(-c4ccccc4)cc3)CC1CO2 (stereo not drawn) | 0.794 nM | 79.4 nM
N#Cc1ccc2c(c1)[C@H]1CN(Cc3ccccc3)C[C@@H]1CO2 | 2.51 nM | 20 nM
COc1ccc2c(c1)C1CN(Cc3ccccc3)CC1CO2 (stereo not drawn) | 79.4 nM | 200 nM
N#Cc1ccc2c(c1)[C@@H]1CN(Cc3ccccc3)C[C@H]1CO2 | 6.31 nM | 31.6 nM
CC(=O)Nc1ccc(CN2C[C@H]3COc4ccc(C#N)cc4[C@@H]3C2)cc1 | 20 nM | 31.6 nM
CC(=O)Nc1ccc(CCN2C[C@@H]3COc4ccc(C#N)cc4[C@H]3C2)cc1 | 1 nM | 31.6 nM
CC(=O)c1ccc(C(=O)Nc2ccc(CCN3CC4COc5ccc(C#N)cc5C4C3)cc2)cc1 (stereo not drawn) | 0.794 nM | 20 nM
CCCN1CC2COc3ccc(C#N)cc3C2C1 (stereo not drawn) | 15.8 nM | 126 nM
CS(=O)(=O)Nc1ccc(CCN2CC3COc4ccc(C#N)cc4C3C2)cc1 (stereo not drawn) | 1.58 nM | 25.1 nM
COc1ccc2c(c1)OCC1CN(Cc3ccccc3)CC21 (stereo not drawn) | 79.4 nM | 251 nM
CC(=O)Nc1ccc(CCN2CC3COc4ccc(C#N)cc4C3C2)cc1 (stereo not drawn) | 1 nM | 39.8 nM
CC(=O)Nc1ccc(CN2C[C@@H]3COc4ccc(C#N)cc4[C@H]3C2)cc1 | 10 nM | 12.6 nM
CC(=O)Nc1ccc(CCN2C[C@H]3COc4ccc(C#N)cc4[C@@H]3C2)cc1 | 3.16 nM | 39.8 nM
N#Cc1ccc2c(c1)[C@H]1CN(Cc3ccc(F)cc3)C[C@@H]1CO2 | 6.31 nM | 25.1 nM
N#Cc1ccc2c(c1)C1CN(Cc3ccc(F)cc3)CC1CO2 (stereo not drawn) | 7.94 nM | 79.4 nM
CC(=O)Nc1ccc(CN2CC3COc4ccc(C#N)cc4C3C2)cc1 (stereo not drawn) | 12.6 nM | 25.1 nM
N#Cc1ccc2c(c1)[C@@H]1CN(Cc3ccc(F)cc3)C[C@H]1CO2 | 15.8 nM | 39.8 nM
N#Cc1ccc2c(c1)[C@H]1CN(CCCCNC(=O)c3ccc(-c4ccccc4)cc3)C[C@@H]1CO2 | 0.316 nM | 31.6 nM
N#Cc1ccc2c(c1)[C@@H]1CN(CCCCNC(=O)c3ccc(-c4ccccc4)cc3)C[C@H]1CO2 | 0.631 nM | 50.1 nM
N#Cc1ccc2c(c1)C1CN(Cc3ccccc3)CC1CO2 (cis isomer) | 100 nM | 316 nM
N#Cc1ccc2c(c1)[C@H]1CN(CCCCNC(=O)c3ccc(-c4ccc(N)cc4)cc3)C[C@@H]1CO2 (single isomer, unassigned) | 0.2 nM | 20 nM
Brc1ccc2c(c1)C1CN(Cc3ccccc3)CC1CO2 (stereo in doubt; cis) | 100 nM | 501 nM
Brc1ccc2c(c1)C1CN(Cc3ccccc3)CC1CO2 (stereo in doubt; trans) | 15.8 nM | 50.1 nM
Clc1ccc2c(c1)C1CN(Cc3ccccc3)CC1CO2 (trans isomer) | 15.8 nM | 31.6 nM
N#Cc1ccc2c(c1)OCC1CN(Cc3ccccc3)CC21 (trans isomer) | 25.1 nM | 501 nM
N#Cc1ccc2c(c1)C1CN(Cc3ccccc3)CC1CO2 (trans isomer) | 3.98 nM | 25.1 nM
Fc1ccc2c(c1)C1CN(Cc3ccccc3)CC1CO2 (trans isomer) | 7.94 nM | 25.1 nM
c1ccc(CN2CC3COc4ccccc4C3C2)cc1 (trans isomer) | 126 nM | 316 nM
N#Cc1ccc2c(c1)C1CN(Cc3ccccc3)CC1CC2 (trans isomer) | 6.31 nM | 10 nM
